Kd data for 18 compounds are collected here from ChEMBL document CHEMBL3991601, “The target landscape of clinical kinase drugs” (Science, 2017).

In test [1] the target is T1, Serine/threonine-protein kinase Nek1 (Homo sapiens, UniProt Q96PY6).
T1 sequence (Q96PY6 whole entry): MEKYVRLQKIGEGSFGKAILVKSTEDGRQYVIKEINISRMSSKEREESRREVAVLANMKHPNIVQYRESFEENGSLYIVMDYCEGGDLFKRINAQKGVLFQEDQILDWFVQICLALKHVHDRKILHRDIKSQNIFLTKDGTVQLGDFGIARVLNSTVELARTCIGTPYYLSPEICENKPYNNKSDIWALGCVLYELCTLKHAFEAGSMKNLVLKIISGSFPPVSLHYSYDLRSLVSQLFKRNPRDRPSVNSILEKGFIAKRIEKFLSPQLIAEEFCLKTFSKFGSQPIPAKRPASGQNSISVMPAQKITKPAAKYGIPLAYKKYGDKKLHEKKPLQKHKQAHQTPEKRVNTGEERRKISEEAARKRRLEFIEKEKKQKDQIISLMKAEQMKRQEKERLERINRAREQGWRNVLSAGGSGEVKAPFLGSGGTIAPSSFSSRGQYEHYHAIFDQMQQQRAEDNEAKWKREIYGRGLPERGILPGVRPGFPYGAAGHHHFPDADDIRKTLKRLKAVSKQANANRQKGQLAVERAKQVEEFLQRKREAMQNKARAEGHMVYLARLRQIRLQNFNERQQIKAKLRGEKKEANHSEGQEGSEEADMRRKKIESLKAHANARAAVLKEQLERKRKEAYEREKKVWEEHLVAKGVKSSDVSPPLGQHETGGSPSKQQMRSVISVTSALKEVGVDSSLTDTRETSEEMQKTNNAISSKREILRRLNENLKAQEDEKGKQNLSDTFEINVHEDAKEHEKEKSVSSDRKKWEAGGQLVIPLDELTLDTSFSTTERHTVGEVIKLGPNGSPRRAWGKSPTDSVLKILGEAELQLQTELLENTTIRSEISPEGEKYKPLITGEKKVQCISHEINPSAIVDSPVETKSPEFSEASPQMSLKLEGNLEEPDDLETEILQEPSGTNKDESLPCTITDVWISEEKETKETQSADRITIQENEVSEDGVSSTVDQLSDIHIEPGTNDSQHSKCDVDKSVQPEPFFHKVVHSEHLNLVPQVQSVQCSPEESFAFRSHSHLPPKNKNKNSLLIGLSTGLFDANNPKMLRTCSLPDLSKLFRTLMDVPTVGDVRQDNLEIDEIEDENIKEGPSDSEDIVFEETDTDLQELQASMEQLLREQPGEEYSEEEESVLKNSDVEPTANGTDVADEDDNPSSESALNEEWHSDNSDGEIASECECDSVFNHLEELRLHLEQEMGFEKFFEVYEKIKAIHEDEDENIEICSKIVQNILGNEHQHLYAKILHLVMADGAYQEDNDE

The target of test [2] is Calcium/calmodulin-dependent protein kinase type II subunit gamma (Homo sapiens, UniProt Q13555).
Chain of Calcium/calmodulin-dependent protein kinase type II subunit gamma (Q13555 whole entry): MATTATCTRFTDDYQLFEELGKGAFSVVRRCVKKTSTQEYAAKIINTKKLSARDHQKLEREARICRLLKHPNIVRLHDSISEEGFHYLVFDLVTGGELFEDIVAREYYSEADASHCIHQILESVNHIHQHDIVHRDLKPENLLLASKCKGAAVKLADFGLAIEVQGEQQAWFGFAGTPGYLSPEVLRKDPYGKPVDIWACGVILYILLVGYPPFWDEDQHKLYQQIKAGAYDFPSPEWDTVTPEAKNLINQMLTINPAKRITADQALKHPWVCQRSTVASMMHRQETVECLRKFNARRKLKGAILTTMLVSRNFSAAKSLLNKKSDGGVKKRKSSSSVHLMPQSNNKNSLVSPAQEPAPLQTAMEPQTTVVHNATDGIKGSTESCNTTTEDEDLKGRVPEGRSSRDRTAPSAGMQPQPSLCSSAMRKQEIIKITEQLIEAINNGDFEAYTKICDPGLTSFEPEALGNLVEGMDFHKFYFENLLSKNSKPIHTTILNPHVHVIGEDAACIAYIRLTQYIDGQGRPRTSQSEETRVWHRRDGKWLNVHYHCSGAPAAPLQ
In test [3] the target is T2, Pyridoxal kinase (Homo sapiens, UniProt O00764).
T2 sequence (O00764 whole entry): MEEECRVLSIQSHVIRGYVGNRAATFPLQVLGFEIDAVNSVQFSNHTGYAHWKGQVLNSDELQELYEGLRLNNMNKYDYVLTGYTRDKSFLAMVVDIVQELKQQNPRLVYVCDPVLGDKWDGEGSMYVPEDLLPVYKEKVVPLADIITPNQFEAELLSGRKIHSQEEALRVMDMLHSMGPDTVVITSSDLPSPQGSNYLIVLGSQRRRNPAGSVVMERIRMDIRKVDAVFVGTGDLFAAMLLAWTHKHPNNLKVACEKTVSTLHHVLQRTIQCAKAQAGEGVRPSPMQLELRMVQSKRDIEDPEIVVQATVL

The target of test [4] is T3, Mitogen-activated protein kinase kinase kinase 5 (Homo sapiens, UniProt Q99683).
T3 sequence (Q99683 whole entry): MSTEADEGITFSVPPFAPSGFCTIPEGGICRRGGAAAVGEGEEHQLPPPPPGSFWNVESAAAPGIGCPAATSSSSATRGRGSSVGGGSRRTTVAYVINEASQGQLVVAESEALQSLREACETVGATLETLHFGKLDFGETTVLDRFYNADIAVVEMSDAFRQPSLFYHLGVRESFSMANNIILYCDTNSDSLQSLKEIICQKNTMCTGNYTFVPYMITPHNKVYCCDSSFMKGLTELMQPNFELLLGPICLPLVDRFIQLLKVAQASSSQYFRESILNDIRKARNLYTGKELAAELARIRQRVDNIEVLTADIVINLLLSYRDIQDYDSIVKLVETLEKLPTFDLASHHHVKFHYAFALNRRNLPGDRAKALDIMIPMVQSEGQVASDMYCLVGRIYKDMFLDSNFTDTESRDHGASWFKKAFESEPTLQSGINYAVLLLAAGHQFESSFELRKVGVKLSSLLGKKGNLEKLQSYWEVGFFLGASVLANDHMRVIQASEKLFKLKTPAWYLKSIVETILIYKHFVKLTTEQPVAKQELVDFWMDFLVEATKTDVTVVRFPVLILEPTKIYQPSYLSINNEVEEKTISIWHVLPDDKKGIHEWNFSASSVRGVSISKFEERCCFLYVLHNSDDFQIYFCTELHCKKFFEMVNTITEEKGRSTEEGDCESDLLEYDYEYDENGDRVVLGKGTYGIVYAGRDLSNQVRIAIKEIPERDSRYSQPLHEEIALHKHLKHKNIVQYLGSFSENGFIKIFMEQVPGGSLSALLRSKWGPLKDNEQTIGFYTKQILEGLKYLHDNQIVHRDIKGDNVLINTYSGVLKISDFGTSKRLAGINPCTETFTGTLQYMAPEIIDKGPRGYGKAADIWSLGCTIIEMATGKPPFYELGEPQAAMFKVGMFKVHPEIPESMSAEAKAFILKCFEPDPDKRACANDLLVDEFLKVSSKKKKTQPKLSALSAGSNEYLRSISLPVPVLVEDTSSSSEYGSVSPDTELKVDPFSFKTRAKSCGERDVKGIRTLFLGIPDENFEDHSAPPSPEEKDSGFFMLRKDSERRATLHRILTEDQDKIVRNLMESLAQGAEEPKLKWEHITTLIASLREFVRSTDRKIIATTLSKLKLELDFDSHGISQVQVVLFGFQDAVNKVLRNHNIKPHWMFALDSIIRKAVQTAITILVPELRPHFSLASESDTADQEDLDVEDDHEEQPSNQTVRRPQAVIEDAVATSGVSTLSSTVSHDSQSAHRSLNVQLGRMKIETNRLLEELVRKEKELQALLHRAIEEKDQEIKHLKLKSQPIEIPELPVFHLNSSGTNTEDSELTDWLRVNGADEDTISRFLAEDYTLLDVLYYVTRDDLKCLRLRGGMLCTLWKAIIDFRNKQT

Calls of active or inactive are those of the source.
Further: in the data inactive means no Kd found up to 30 µM.

As usually defined, the Kd is the constant that tells how readily two partners part at equilibrium. For `COCCN1CCN(Cc2ccc(-c3n[nH]c4c3C(=O)c3c(NC(=O)NN5CCOCC5)cccc3-4)cc2)CC1` [RGB-286638], the Kd in test [1], in test [2], in test [3] and in test [4] was > 30 µM (inactive) in each case.
As to `CC(C)(O)CC(=O)NCCn1ccc2ncnc(Nc3ccc(Oc4cccc(C(F)(F)F)c4)c(Cl)c3)c21` [TAK-285], the Kd in test [1], in test [2], in test [3] and in test [4] was > 30 µM (inactive) each time.
Turning to `C[C@@H]1COC(Nc2ccc3ncnc(Nc4ccc(OCc5nccs5)c(Cl)c4)c3c2)=N1` [VARLITINIB], the Kd in test [1], in test [2], in test [3] and in test [4] was > 30 µM (inactive) throughout.
Take `C=CCN(/C=C1/C(=O)O[C@H](COC)[C@@]2(C)C1=C(O)C(=O)C1=C2[C@H](OC(C)=O)C[C@]2(C)C(=O)CC[C@@H]12)CC=C` [SONOLISIB]: the Kd in test [1], in test [2], in test [3] and in test [4] was > 30 µM (inactive) throughout.
Take `O=C(NC[C@H](O)CO)c1ccncc1Nc1ccc(I)cc1F` [PIMASERTIB]: the Kd in test [1], in test [2], in test [3] and in test [4] was > 30 µM (inactive) each time.
On to `CCc1cc2c(cc1N1CCC(N3CCOCC3)CC1)C(C)(C)c1[nH]c3cc(C#N)ccc3c1C2=O` [ALECTINIB], for which the Kd in test [1], in test [2], in test [3] and in test [4] was > 30 µM (inactive) throughout.
Regarding `Cn1c(=O)n(-c2ccc(C(C)(C)C#N)cc2)c2c3cc(-c4cnc5ccccc5c4)ccc3ncc21` [DACTOLISIB], the Kd in test [1], in test [2], in test [3] and in test [4] was > 30 µM (inactive) in each case.
On to `Cc1c(NC(=O)OC[C@@H]2COCCN2)cn2ncnc(Nc3ccc4c(cnn4Cc4cccc(F)c4)c3)c12` [AC-480], for which the Kd in test [1], in test [2], in test [3] and in test [4] was > 30 µM (inactive) in each case.
Consider `COc1cc(Nc2ncc(F)c(Nc3ccc4c(n3)N(COP(=O)(O)O)C(=O)C(C)(C)O4)n2)cc(OC)c1OC` [FOSTAMATINIB], for which the Kd in test [1], in test [2], in test [3] and in test [4] was > 30 µM (inactive) each time.
As for `CN1CCN(c2nc(C3=C(c4c[nH]c5ccccc45)C(=O)NC3=O)c3ccccc3n2)CC1` [SOTRASTAURIN], the Kd in test [1], in test [2], in test [3] and in test [4] was > 30 µM (inactive) each time.
With `CC(C)CC(=O)Nc1[nH]nc2c1CN(C(=O)C1CCN(C)CC1)C2(C)C` [PHA-793887], the Kd in test [1], in test [2], in test [3] and in test [4] was > 30 µM (inactive) in each case.
On to `COc1cccc2cc(-c3nc([C@H]4CC[C@H](C(=O)O)CC4)n4ncnc(N)c34)[nH]c12` [OSI-027], for which the Kd in test [1], in test [2], in test [3] and in test [4] was > 30 µM (inactive) in each case.
Consider `COc1ccc2c(OCc3nnc4ccc(-c5ccccc5)nn34)ccnc2c1` [AMG-208], for which the Kd in test [1], in test [2], in test [3] and in test [4] was > 30 µM (inactive) throughout.
For `COc1cc2ncnc(Nc3ccc(F)c(Cl)c3)c2cc1NC(=O)/C=C/CN1CCCCC1` [DACOMITINIB ANHYDROUS], the Kd in test [1], in test [2], in test [3] and in test [4] was > 30 µM (inactive) in each case.
Consider `CC[C@@](C)(Nc1ccnc(-c2c[nH]c3ncccc23)n1)C(=O)NCC(F)(F)F` [DECERNOTINIB], for which the Kd in test [1] is > 30 µM (inactive); in test [2], 14.3 µM; in test [3] it was > 30 µM (inactive); in test [4], > 30 µM (inactive).
With `O=C(NOC[C@H](O)CO)c1ccc(F)c(F)c1Nc1ccc(I)cc1F` [MIRDAMETINIB], the Kd in test [1], in test [2], in test [3] and in test [4] was > 30 µM (inactive) in each case.
Regarding `COc1cc2nccc(Oc3ccc(NC(=O)C4(C(=O)Nc5ccc(F)cc5)CC4)cc3)c2cc1OC` [CABOZANTINIB], the Kd in test [1], in test [2], in test [3] and in test [4] was > 30 µM (inactive) in each case.
As to `NC[C@@](O)(c1ccc(Cl)cc1)c1ccc(-c2cn[nH]c2)cc1` [AT-13148], the Kd in test [1], in test [2], in test [3] and in test [4] was > 30 µM (inactive) each time.
